Data: US20160067211A1, “PHARMACEUTICAL COMPOSITION” (Eberhard Karls Universitaet Tuebingen Medizinische Fakultaet, priority 2013, published 2016)

Experiments:
[1] = tested on: SK-MEL-28 melanoma cells; assay: PI/Annexin V staining FACS, SK-MEL-28; format: cell-based, human; details: SK-MEL-28, 100 μM; for annexin V positive (apoptotic) cells: DMSO control 2.5%; for PI positive (nectrotic) cells: DMSO control 7.9%
Protocol: (A) Cell cycle FACS analyses of PI stained BLM and SK-MEL-28 melanoma cells. 100 μM of 8-PN-induced a G2 arrest in both cells. (B) FACS analyses of BLM and SK-MEL-28 melanoma cells treated with 100 μM 6-PN or 8-PN and stained for annexin V/PI; staurosporin was used as control for apoptosis induction and DMSO as vehicle control. […] (C) BLM and SK-MEL-28 melanoma cells were treated with 100 μM of PNs; TSA, SAHA and EMSO were used as controls.
To further analyze the possibility of apoptosis induction, an extensive apoptosis assay was performed on SK-MEL-28 melanoma cells 4 hours after treatment with 100 μM 6-PN or 8-PN (FIG. 9). […] This was verified by FACS cell cycle analyses to screen for a possible increase of the sub-G1 fraction of cells (apoptotic cells) or for the induction of a G2 arrest (inhibition of proliferation). […] To further differentiate between the induction of apoptosis and/or necrosis an PI/Annexin V staining of SK-MEL-28 and BLM cells was performed 4 hours and 24 hours after the treatment with 6-PN or 8-PN; 10 μM staurosporin (6 hours treatment) was used as positive control for the induction of apoptosis; DMSO treatment was used as vehicle control. The cells were then analyzed by FACS.

[2] = tested on: chicken embryos; assay: Embryo toxicity testing in chicken embryos; format: in vivo; details: 100 μM in ethanol and PBS, after 72 hours
Protocol: FIG. 11: 6-PN and 8-PN reduce proliferation and invasion of BLM and LOXIMVI melanoma cells in human epidermal skin reconstructs and induce little embryo toxicity. (A) BLM melanoma cells and keratinocytes were seeded on top of a collagen matrix populated by fibroblasts. After 16 days a keratinizing stratified epithelium with a rudimentary corium is formed. […] (B) Similar results were obtained for LOXIMVI melanoma cells under the same treatment conditions. Only nests of dead, MIB1 negative LOXIMVI cells were detected after treatment with the PNs. (C) Chicken embryos stage 13HH (corresponding to 6 human gestational weeks) were exposed to DMSO as control, 100 μM 6-PN or 100 μM 8-PN to determine LD50 values. Survival rates after 24 hours, 48 hours, and 72 hours are depicted in a Kaplan-Meier plot.
Fertilized eggs of leghorn chickens (Gallus gallus domesticus) were incubated at 38° C. in a temperature-controlled, humidified brooder. […]
Due to the detected cytotoxic effects on cancer cells and of melanocytes in vitro, the determination of in vivo embryotoxicity was of great interest. To this end, 2-day chicken embryos were treated for 24, 48 and 72 hours with 100 μM 6-PN or 100 μM 8-PN to monitor survival as readout for lethal embryotoxicity (FIG. 11C). […]

[3] = tested on: all tested cancer cells (Tab. 1); assay: Proliferation of all tested tumor cell lines (Table 1); format: cell-based; details: 19 tumor cell lines of Tab. 1
Text: The inventors have tested 19 different tumor cell lines in total, including five melanoma cell lines, two liver cancer cell lines, three breast cancer cell lines, three colon cancer cell lines, two prostate cancer cell lines, two lung cancer cell lines and to renal cancer cell lines.

## CC(C)=CCc1c(O)cc(O)c2c1OC(c1ccc(O)cc1)CC2=O (stereo not drawn) [8-PN, 5,7-Dihydroxy-2-(4-hydroxy-phenyl)-8-(3-methyl-but-2-enyl)-chroman-4-one]
[1]; 4 hours
  annexin V positive (apoptotic) cells: 0.2%
  PI positive (nectrotic) cells: 29.9%
[1]; 24 hours
  annexin V positive (apoptotic) cells: 0.5%
  PI positive (nectrotic) cells: 58.2%
[2]
  embryos survived: 8/10
[3]
  cell proliferation in all tested cancer cells: effectively reduce cell proliferation
